Assay results as given in PMC11555526, “Development of 2-Aminoadenine-Based Proteolysis-Targeting Chimeras (PROTACs) as Novel Potent Degraders of Monopolar Spindle 1 and Aurora Kinases” (ACS Pharmacology & Translational Science, 2024).

Key:
[1] = molecular target: T1, AURKA (MV4-11^AURKA-HiBiT cells) (Homo sapiens, UniProt O14965); assay: HiBiT assay, AURKA degradation; type: cell-based; settings: 6 h treatment, MV4-11^AURKA-HiBiT cells
T1 construct: expressed in transfected cells; host or cells: MV4-11, lentiviral transduction
T1 sequence (O14965 1-403): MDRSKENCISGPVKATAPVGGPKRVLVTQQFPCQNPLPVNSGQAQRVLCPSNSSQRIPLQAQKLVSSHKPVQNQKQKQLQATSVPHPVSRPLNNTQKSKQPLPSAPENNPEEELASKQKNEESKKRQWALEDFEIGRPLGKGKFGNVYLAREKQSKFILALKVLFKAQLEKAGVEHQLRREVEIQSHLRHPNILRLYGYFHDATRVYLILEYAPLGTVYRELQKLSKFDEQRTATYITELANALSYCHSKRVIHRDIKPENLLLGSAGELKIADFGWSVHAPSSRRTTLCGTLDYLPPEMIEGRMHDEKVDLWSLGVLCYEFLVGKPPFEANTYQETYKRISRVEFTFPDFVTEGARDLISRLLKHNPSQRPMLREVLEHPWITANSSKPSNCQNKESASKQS
Summary of the method: (§1)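 MV4-11 lines stably expressing HiBiT-tagged AURKA, AURKB or TTK (lentiviral) were treated with serial compound dilutions for the indicated times. Remaining tagged protein was read by lytic HiBiT luminescence, and DC50 was fitted with a four-parameter dose–response equation using concentrations showing sigmoidal behaviour.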

human TTK = system: human TTK; set-up: method as in PMID 23940287, PMID 32338514, PMID 27905678, PMID 27437075, PMID 30232224; settings: literature values, introduction and Figure 1; cited from earlier work
[2] = molecular target: T2, AURKB (MV4-11^AURKB-HiBiT cells) (Homo sapiens, UniProt Q96GD4); assay: HiBiT assay, AURKB degradation; type: cell-based; settings: 6 h treatment
T2 construct: expressed in transfected cells; host or cells: MV4-11, lentiviral transduction (pRRL-PGK vector)
Summary of the method: as §1

[3] = molecular target: T3, TTK (MV4-11^HiBiT-TTK cells) (Homo sapiens, UniProt P33981); assay: HiBiT assay, TTK degradation; type: cell-based; set-up: key to Dmax (maximal degradation) TTK: compounds with degradation less than 15% reported as “inactive”; settings: 6 h treatment, MV4-11^HiBiT-TTK cells
T3 construct: expressed in transfected cells; host or cells: MV4-11, lentiviral transduction (pRRL-PGK-HiBiT entry vector)
T3 sequence (P33981 1-857): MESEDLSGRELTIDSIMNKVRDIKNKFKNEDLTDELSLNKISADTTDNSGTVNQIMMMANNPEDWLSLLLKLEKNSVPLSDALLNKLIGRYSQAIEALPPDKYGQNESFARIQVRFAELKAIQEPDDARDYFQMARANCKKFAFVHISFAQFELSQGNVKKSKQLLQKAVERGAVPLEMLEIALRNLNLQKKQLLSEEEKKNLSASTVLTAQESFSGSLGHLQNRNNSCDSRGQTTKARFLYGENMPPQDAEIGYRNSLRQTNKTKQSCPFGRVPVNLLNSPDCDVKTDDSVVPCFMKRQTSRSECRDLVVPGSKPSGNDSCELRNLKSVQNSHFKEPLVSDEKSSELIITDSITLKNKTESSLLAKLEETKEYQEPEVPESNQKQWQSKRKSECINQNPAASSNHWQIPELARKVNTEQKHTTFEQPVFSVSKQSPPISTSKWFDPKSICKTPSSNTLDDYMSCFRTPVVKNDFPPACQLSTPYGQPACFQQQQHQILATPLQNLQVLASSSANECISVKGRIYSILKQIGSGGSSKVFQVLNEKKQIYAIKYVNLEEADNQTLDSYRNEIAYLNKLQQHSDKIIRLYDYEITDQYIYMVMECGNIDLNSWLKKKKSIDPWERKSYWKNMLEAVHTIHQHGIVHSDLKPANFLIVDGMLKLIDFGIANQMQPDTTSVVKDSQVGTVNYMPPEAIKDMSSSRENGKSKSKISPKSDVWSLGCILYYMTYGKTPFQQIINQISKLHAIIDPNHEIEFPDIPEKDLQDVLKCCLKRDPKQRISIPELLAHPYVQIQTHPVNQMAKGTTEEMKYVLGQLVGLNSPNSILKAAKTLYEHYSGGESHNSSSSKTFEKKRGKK
Summary of the method: as §1

MV4-11 cells (naive) = assay: alamarBlue cell viability assay; type: cell-based, human; settings: Homo sapiens; 72 h treatment, MV4-11 cells (naive); read-out: EC50 (concentration that decreases cell viability by 50%)
Summary of the method: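 Cells exposed to compound concentration series or vehicle for 72 h (unless otherwise stated); alamarBlue added a few hours before end point. Read-out by fluorescence (ex 550/em 600 nm) or absorbance (570 nm, 600 nm reference).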

TTK = system: TTK; set-up: method as in PMID 35084180; settings: reported PROTAC; cited from earlier work
AURKA [4] = settings: reported PROTACs; cited from earlier work
AURKC = settings: read-out: AURKC IC50; literature value, introduction; cited from earlier work
AURKA [5] = system: AURKA; set-up: method as in PMID 32338514, PMID 27905678, PMID 27437075, PMID 30232224, PMID 27699881; settings: literature values, introduction and Figure 1; cited from earlier work
AURKB = system: AURKB; set-up: method as in PMID 32338514, PMID 27905678, PMID 27437075, PMID 30232224, PMID 27699881; settings: literature values, introduction and Figure 1; cited from earlier work

T2 sequence (Q96GD4 1-345 isoform Q96GD4-5): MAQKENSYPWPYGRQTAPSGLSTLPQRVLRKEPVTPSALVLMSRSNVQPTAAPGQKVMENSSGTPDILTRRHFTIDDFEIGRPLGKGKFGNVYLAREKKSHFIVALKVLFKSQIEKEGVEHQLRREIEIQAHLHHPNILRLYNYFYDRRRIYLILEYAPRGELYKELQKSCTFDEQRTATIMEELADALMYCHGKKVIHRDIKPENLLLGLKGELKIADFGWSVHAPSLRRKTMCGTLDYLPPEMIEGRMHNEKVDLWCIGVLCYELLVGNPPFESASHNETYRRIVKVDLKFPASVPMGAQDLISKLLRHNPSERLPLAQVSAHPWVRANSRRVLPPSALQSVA

Structure (SMILES): COc1cc(N2CCC(O)CC2)ccc1Nc1nc(Nc2ccccc2S(=O)(=O)C(C)C)c2nc[nH]c2n1 [MPS1-IN-3, reference compound]
- DC50 ([1]; read-out: DC50 (half-maximal degradation concentration) AURKA): 998 nM
- Dmax ([1]; read-out: Dmax (maximal degradation) AURKA): 41.7%
- IC50 (human TTK): 50 nM
- DC50 ([2]; read-out: DC50 (half-maximal degradation concentration) AURKB): 3210 nM
- Dmax ([2]; read-out: Dmax (maximal degradation) AURKB): 43.3%
- DC50 (half-maximal degradation concentration) TTK [3]: – (compounds with degradation less than 25% were not calculated and reported as “–”)
- Dmax (maximal degradation) TTK [3]: inactive
- EC50 (MV4-11 cells (naive)): 1270 nM

Structure (SMILES): CCC(=O)N[C@H]1CC[C@@H](n2c(=O)cc(C)c3cnc(Nc4ccc(N5CCN(C(=O)CCCC#Cc6ccc7c(c6)CN(C6CCC(=O)NC6=O)C7=O)CC5)cc4OC)nc32)CC1 (some centres unmarked) [LJB-1113157]
- DC50 (TTK): 3.1 nM

Structure (SMILES): COc1cc(Nc2ncc3c(n2)-c2ccc(Cl)cc2C(c2c(F)cccc2OC)=NC3)ccc1C(=O)NCCOCCOCCNC(=O)COc1cccc2c1C(=O)N(C1CCC(=O)NC1=O)C2=O (centres unmarked) [JB170]
- DC50 (AURKA [4]): 28 nM

Structure (SMILES): c1nc2nc(Nc3ccc(N4CCOCC4)cc3)nc(NC3CCCCC3)c2[nH]1 [Reversine]
- IC50 (AURKC): 400 nM

Structure (SMILES): O=C(Nc1c[nH]nc1-c1nc2ccc(CN3CCOCC3)cc2[nH]1)NC1CC1 [AT9283]
- IC50 (AURKA [5]): 3 nM
- IC50 (AURKB): 3 nM

Structure (SMILES): O=C(COc1cccc2c1C(=O)N(C1CCC(=O)NC1=O)C2=O)NCCOCCOCCNC(=O)C1(Cc2cccc(Nc3nccs3)n2)CCC(Oc2cccc(Cl)c2F)CC1 (centres unmarked) [JB300]
- DC50 (AURKA [4]): 30 nM
